Tests used:
[1] = in-vitro skin penetration, vertical diffusion cell
Method: Skin penetration studies were carried out using porcine full-thickness skin (Procured from Department of Animal and Range Sciences, SDSU) and excised human skin (NDRI, Philadelphia, PA). The skin was sandwiched between the two compartments of a vertical diffusion cell and equilibrated for 3 hrs. The receptor compartment was filled with phosphate buffer (pH 7.4) and was maintained at 37° C. with stirring. […] Samples (200μ) were removed from the receptor compartment at predetermined intervals and replaced with an equal volume of fresh buffer. To study the effect of the formulation forming a skin depot, in a separate experiment the skin was treated for 6 hrs and the treatment was removed. The donor compartment was replaced with plain buffer (pH 7.4) and the study was continued for 48 hrs. At the end of the study the skin was taken out and stratum corneum (SC) was removed using tape stripping and the tape strips were soaked in 50% ethanol overnight to extract the drug. The remaining skin (epidermis and dermis) was homogenized using 1M sodium hydroxide solution. Scintillation cocktail was added to all the samples and the radioactive counts were measured in a scintillation counter (Beckman).

[2] = system: reconstructed human skin (EPI-200; Epiderm); test: in vitro skin irritation, MTT viability assay; type: cell-based
Method: In vitro skin irritation studies were carried out using reconstructed human skin (EPI-200; Epiderm; Mattek Corporation, Ashland, MA). […] Briefly, the MTT assay was performed by transferring the tissues to 24-well plates containing MTT medium (1 mg/ml). After 3 hours, formazan salt formed by cellular mitochondria was extracted with 2 ml/tissue of isopropanol and the optical density will be measured using a plate reader at 570 nm. Relative cell viability will be calculated as % of the mean of the negative control. The cytotoxicity was estimated by the time to kill 50% of the cells (ET-50).

CN(C)[C@@H]1C(O)=C(C(N)=O)C(=O)[C@@]2(O)C(O)=C3C(=O)c4c(O)cccc4[C@@](C)(O)[C@H]3C[C@@H]12 [tetracycline]
amount of tetracycline in the human skin [1]: 20-60 μg/sq·cm

Triton X-100 [Positive control]
ET 50 Value [2]: 5.28 h

Source: patent US12465567B2, “Enhanced antibiotic and drug delivery for aqueous topical applications for human and veterinary uses” (priority 2018, dated 2025)
